Experimental data published in PMC7417534, “Cytochrome P450 inhibition potential and initial genotoxic evaluation of 14-O-[(4,6-diaminopyrimidine-2-yl)thioacetyl] mutilin” (Scientific Reports, 2020).

Assays:
CYP3A4 mRNA = CYP3A4 mRNA expression in Hep G2 cells (real-time PCR); format: cell-based, human; conditions: 2 and 4 h, 4.98, 0.16 and 0.08 mM
Procedure: (§1) The logarithmic growth phase Hep G2 cells were seeded into 12-well plastic plates at a density of […]. After incubation at 37 °C under 5% CO2 for 24 h, the media were then replaced with 1 mL of serial dilutions of the DPTM (4.98, 0.16 and 0.08 mM) in fresh media. When cells were incubated for 2, 4 and 12 h at 37 °C under 5% CO2, the RNA was isolated using the Trizol reagent according to the manufacturer’s protocol. Total RNA (5 μL) was transcribed into cDNA by using the PrimeScript RT reagent Kit (Perfect Real Time). The obtained cDNA (5 μL) was added for 45 cycles of PCR amplification to detect the mRNA expression (the primers and sequences used herein were given in Table 3) using the ABI Villa TM7Dx real-time PCR system (Gaithersburg, USA). Glyceraldehyde-3-phosphate dehydrogenase (GAPDH) was used as reference gene. All reactions were performed in a final volume of 20 μL (10 μL of 2 × SYBR Green Real-time PCR Master Mix, 2 μL of cDNA and 2 μL of the primers and 6 μL DEPC water) and executed in triplicate.

CYP2E1 = molecular target: T1, CYP2E1 (Rattus norvegicus, UniProt P05182); assay: Cocktail CYP inhibition in rat liver microsomes, CYP2E1 (chlorzoxazone); format: in vitro ADME; conditions: cocktail method, read-out: IC50 values, CYP2E1 in RLMs
T1 construct: containing 100 μL RLMs or HLMs; tissue Research Institute for Liver Diseases (Shanghai) Co., Ltd; host or cells: male SD rat liver microsomes
T1 sequence (P05182 whole entry): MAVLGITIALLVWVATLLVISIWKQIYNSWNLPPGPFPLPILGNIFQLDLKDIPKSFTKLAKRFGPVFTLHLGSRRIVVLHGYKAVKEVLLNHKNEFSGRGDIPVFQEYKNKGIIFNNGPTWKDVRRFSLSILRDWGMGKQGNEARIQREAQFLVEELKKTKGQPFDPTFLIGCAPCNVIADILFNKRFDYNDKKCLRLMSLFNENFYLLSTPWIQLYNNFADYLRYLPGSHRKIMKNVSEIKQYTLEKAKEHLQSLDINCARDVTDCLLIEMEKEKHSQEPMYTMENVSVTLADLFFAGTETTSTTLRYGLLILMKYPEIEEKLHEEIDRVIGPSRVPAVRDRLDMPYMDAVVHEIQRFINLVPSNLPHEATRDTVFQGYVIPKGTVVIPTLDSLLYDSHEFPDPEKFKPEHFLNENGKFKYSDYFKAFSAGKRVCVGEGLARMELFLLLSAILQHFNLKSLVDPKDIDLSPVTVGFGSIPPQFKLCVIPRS
Procedure: (§2) We used the cocktail method to study the inhibition activities of DPTM against CYP enzymes in RLMs and HLMs with slight modification. DPTM (250 μmol) was dissolved in 1.25 mL methanol to a solution and then diluted with methanol and water to 2, 10, 20, 100, 200, 400, 1,000 and 2000 μM, respectively. The obtained serial dilutions (10 μL) were added to the incubation mixtures (200 μL total volume), containing 100 μL RLMs or HLMs (final concentration was 5 μg/μL, respectively), 10 μL glucose-6-phosphate (final concentration was 1 mM), 10 μL glucose-6-phosphate dehydrogenase (final concentration was 0.1 U/L), 20 μL potassium phosphate buffer (final concentration was 0.01 M) and 20 μL MgCl2 (final concentration was 2 mM), to give the final concentrations were 0.1, 0.5, 1, 5 10, 20, 50, and 100 μM, respectively. For the groups that in the absence of DPTM, 10 μL methanol (1%) replaced the DPTM and was added to the incubation mixtures. […] The final concentration of methanol in all the incubation mixtures, including the blank group, was […]. […] The determined metabolic substrates were used for calculating the relative enzyme activity (Erel) by the following formula: Erel (%) = Ci(n)/Ci(0) × 100%, in which Ci(n) was the determined metabolic substrates in the presence of varying concentrations of DPTM and Ci(0) was the determined metabolic substrates in the absence of DPTM. […]

CYP2D6 = molecular target: T2, CYP2D6 (Homo sapiens, UniProt P10635); assay: Cocktail CYP inhibition in human liver microsomes, CYP2D6 (metoprolol); format: in vitro ADME; conditions: cocktail method, read-out: IC50 values, CYP2D6 in HLMs
T2 construct: containing 100 μL RLMs or HLMs; tissue Research Institute for Liver Diseases (Shanghai) Co., Ltd; host or cells: pooled human liver microsomes
T2 sequence (P10635 whole entry): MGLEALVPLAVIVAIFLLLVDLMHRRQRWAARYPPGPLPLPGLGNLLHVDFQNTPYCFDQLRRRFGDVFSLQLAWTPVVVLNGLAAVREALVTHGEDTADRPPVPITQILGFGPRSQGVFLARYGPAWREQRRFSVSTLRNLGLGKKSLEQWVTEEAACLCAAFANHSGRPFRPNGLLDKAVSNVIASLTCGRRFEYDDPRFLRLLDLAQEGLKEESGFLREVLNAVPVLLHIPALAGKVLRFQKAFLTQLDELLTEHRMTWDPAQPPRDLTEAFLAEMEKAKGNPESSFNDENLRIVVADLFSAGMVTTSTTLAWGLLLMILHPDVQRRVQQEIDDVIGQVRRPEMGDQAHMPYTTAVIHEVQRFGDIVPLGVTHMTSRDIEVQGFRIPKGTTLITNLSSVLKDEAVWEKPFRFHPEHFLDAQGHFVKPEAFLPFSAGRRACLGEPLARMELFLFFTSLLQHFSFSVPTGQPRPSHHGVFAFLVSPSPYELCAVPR
Procedure: as §2

CYP2C9 mRNA = CYP2C9 mRNA expression in Hep G2 cells (real-time PCR); format: cell-based, human; conditions: 2 and 4 h, 4.98, 0.16 and 0.08 mM
Procedure: as §1

CYP1A2 mRNA = CYP1A2 mRNA expression in Hep G2 cells (real-time PCR); format: cell-based, human
Procedure: as §1

[1] = parameters: method as in PMID 30813235; conditions: rats, intravenous administration; cited from earlier work
CYP2D6 mRNA = CYP2D6 mRNA expression in Hep G2 cells (real-time PCR); format: cell-based, human; conditions: 12 h
Procedure: as §1

CYP3A4 = molecular target: T3, CYP3A4 (Homo sapiens, UniProt P08684); assay: Cocktail CYP inhibition in human liver microsomes, CYP3A4 (dapsone); format: in vitro ADME; conditions: cocktail method, read-out: IC50 values, CYP3A4 in HLMs
T3 construct: containing 100 μL RLMs or HLMs; tissue Research Institute for Liver Diseases (Shanghai) Co., Ltd; host or cells: pooled human liver microsomes
T3 sequence (P08684 whole entry): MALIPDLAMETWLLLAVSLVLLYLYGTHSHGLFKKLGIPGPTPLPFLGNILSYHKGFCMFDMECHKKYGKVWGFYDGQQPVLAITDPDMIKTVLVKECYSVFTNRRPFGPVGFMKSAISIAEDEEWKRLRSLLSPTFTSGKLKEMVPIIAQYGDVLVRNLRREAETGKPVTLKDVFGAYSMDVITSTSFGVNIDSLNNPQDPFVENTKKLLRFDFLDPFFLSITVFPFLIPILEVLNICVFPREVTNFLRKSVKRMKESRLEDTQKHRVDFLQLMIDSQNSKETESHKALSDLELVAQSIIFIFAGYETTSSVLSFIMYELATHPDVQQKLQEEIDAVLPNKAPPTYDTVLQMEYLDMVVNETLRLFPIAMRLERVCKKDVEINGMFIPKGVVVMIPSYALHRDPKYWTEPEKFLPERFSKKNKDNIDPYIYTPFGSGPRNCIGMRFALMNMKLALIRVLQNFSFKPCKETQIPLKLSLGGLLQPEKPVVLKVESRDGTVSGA
Procedure: as §2

S. typhimurium TA98 = assay: Ames test, strain TA98; format: cell-based, Salmonella typhimurium; conditions: − S9
From the text: S. typhimurium strains TA97, TA98, TA100, TA102 and TA1535 were stored and maintained as provided in the standard protocol. Each of the strains was checked for their genetic integrity prior to the experiment, and tested for biotin dependence, histidine dependence, biotin and histidine dependence, rfa marker (crystal violet) and presence of the plasmid pKM101 (ampicillin resistance) or pAQ1 (tetracycline resistance). Different strains were used to identify different types of mutations.
The test was carried out at five different concentrations of DPTM. […] Then 1 mL solution was diluted with distilled water by two fold. […] The negative control used in this experiment was 1 mL DMSO which was directly incorporated into 9 mL melted top agar.
The Ames test of DPTM was conducted as described in the literatures[42],[43] with some modifications. Briefly, 1 mL of strain was inoculated into 5 mL of nutrient broth, followed by incubating overnight at 37 °C. The mixture comprised respective strains, drug, negative and positive controls with the S9 for testing in the presence of metabolic activation system. For testing without S9, 1 × phosphate buffer saline (PBS, pH 7.4) replaced the S9 mix. The obtained mixtures were added into the tube, mixed well and incubated at 37 °C for 20 min. Then, the top agar was melted and 2 mL of this melted top agar was added to each tube and gently mixed. […] The results were expressed as the number of revertant colonies per plate. The experiments were performed in triplicate.

CYP2D1 = molecular target: T4, CYP2D1 (Rattus norvegicus, UniProt P10633); assay: Cocktail CYP inhibition in rat liver microsomes, CYP2D1 (metoprolol); format: in vitro ADME; conditions: cocktail method, read-out: IC50 values, CYP2D1 in RLMs
T4 construct: containing 100 μL RLMs or HLMs; tissue Research Institute for Liver Diseases (Shanghai) Co., Ltd; host or cells: male SD rat liver microsomes
T4 sequence (P10633 whole entry): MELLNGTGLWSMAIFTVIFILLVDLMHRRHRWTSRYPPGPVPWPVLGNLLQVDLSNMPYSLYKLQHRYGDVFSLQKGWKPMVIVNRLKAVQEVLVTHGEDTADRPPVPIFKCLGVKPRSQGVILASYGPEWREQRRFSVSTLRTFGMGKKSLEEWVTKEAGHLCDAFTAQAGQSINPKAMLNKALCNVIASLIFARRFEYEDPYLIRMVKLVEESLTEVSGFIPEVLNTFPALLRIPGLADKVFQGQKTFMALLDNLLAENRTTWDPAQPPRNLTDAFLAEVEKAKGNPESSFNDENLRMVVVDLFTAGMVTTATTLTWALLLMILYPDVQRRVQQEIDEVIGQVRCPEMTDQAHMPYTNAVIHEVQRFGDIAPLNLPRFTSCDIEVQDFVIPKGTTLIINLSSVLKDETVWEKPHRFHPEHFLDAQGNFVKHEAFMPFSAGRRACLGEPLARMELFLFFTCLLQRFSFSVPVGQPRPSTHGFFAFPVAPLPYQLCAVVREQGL
Procedure: as §2

C=CC1(C)CC(OC(=O)CSc2nc(N)cc(N)n2)C2(C)C(C)CCC3(CCC(=O)C32)C(C)C1O (stereo not drawn) [DPTM, 14-O-[(4,6-Diaminopyrimidine-2-yl)thioacetyl] mutilin]
CYP3A4 mRNA expression versus control (CYP3A4 mRNA): significantly increase | IC50 (CYP2E1): 61 ± 8 µM | IC50 (CYP2D6): > 100 µM | CYP2C9 mRNA expression versus control (CYP2C9 mRNA): significantly increase | CYP1A2 mRNA expression versus control (CYP1A2 mRNA; 2 and 4 h, 4.98, 0.16 and 0.08 mM): significantly increase | CYP1A2 mRNA expression versus control (CYP1A2 mRNA; 12 h): significantly lowered | half-life (t1/2) [1]: 1.7 to 1.9 h | CYP2D6 mRNA expression versus control (CYP2D6 mRNA): significantly lowered | IC50 (CYP3A4): 8 ± 2 µM | revertant colonies per plate, TA98 (S. typhimurium TA98; dose 0.25 μmol/plate): 33 ± 6 CFU | revertant colonies per plate, TA98 (S. typhimurium TA98; dose 0.50 μmol/plate): 30 ± 10 CFU | revertant colonies per plate, TA98 (S. typhimurium TA98; dose 1.00 μmol/plate): 27 ± 8 CFU | revertant colonies per plate, TA98 (S. typhimurium TA98; dose 1.99 μmol/plate): 32 ± 8 CFU | revertant colonies per plate, TA98 (S. typhimurium TA98; dose 3.98 μmol/plate): 28 ± 11 CFU | IC50 (CYP2D1): > 100 µM
